Experimental data from PubChem BioAssay AID1250 (SRMLSC, 2008).
Active and inactive are the calls of the source.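 Rule for the calls: active = inhibition of at least 30% at one or more tested concentrations; inactive = inhibition below 30% at every dose.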

Assay: antiviral protection against BTV-induced cell death – arbovirus, BSR cells, confirmation (AID 1250)
Settings: BSR cells, Bluetongue virus CPE, ATP luminescence, 72 h; at 20 µM (top of the series)
For `COc1ccc(C(=O)/C=C/c2ccc(OC)c(Cn3nnc4ccccc43)c2)cc1`, the CPE inhibition was 15.8% (inactive).
With `O=C(NC1CCN(Cc2ccccc2)CC1)c1cccc(S(=O)(=O)Nc2cc(C(F)(F)F)ccc2Cl)c1` the CPE inhibition was 21.7% (inactive).
In the case of `COc1cc2ccccc2cc1C(=O)NC(=S)Nc1cc(C(=O)O)ccc1C`, the CPE inhibition is reported as 17.8% (inactive).
In the case of `CCCC1=NN2C(=N)/C(=C\c3cc(C)n(-c4cccc(C)c4)c3C)C(=O)N=C2S1`, the CPE inhibition is reported as 24% (inactive).
In the case of `Nc1nc2ccccc2n1/N=C/c1ccc(-c2ccccc2)o1`, the CPE inhibition is reported as 12.9% (inactive).
With `O=C(Nc1nc(-c2ccc3c(c2)OCO3)cs1)C1COc2ccccc2O1` (configuration not stated) the CPE inhibition was 22.7% (inactive).
With `COC(=O)c1ccccc1NC(=O)CN1CCC(n2nnc3cc(C(F)(F)F)ccc32)CC1` the CPE inhibition was 16.3% (inactive).
With `COCCn1c(-c2ccc(Cl)cc2)cnc1SCC(=O)NCc1cccs1` the CPE inhibition was 18.9% (inactive).
For `CCCn1c2c(c(O)c(C(=O)Nc3nc4ccccc4s3)c1=O)CCCC2`, the CPE inhibition was 19.3% (inactive).
In the case of `COc1ccc(C2=CC(c3ccc(C)cc3)n3nnnc3N2)cc1` (configuration not stated), the CPE inhibition is reported as 6.94% (inactive).
In the case of `Cc1cccc(OCC(=O)Nc2cccc(C(=O)Nc3ccccc3C(=O)O)c2)c1`, the CPE inhibition is reported as 27.3% (inactive).
For `OC(CNCC1(N2CCCCC2)CCCCC1)COc1ccc(Cl)cc1Cl` (configuration not stated), the CPE inhibition was 11.6% (inactive).
In the case of `CC(C)S(=O)(=O)c1nsc2nc(=O)c(/C=C3\C=Nc4ccccc43)c(N)n12`, the CPE inhibition is reported as 22% (inactive).
For `O=C(O)/C(=C\c1ccc(-c2ccc(F)cc2)o1)c1ccccc1`, the CPE inhibition was 24.5% (inactive).
In the case of `CCOc1ccc(-n2c(C)cc(/C=C3/C(=N)N4C(=NC3=O)SN=C4S(C)(=O)=O)c2C)cc1`, the CPE inhibition is reported as 25.5% (inactive).
In the case of `Cc1cccc2c1-c1sc(C(=O)Nc3nccs3)cc1CO2`, the CPE inhibition is reported as 27% (inactive).
For `O=C(Nc1sc2c(c1C(=O)O)CCC2)c1cccs1`, the CPE inhibition was 14.7% (inactive).
For `COC(=O)C1=C(C)N(Cc2ccco2)C(=O)N[C@@H]1c1cccc(C(F)(F)F)c1`, the CPE inhibition was 21.6% (inactive).
In the case of `OC(CNC1CCCCC1)CNC1CCCCC1`, the CPE inhibition is reported as 7.57% (inactive).
With `Oc1c(Br)cc(C2N=C(c3ccccc3)NO2)cc1Br` (configuration not stated) the CPE inhibition was 23.9% (inactive).
With `Brc1ccccc1/C=N/Nc1ccc2ccccc2n1` the CPE inhibition was 14.7% (inactive).
In the case of `Oc1ccc(Br)cc1-c1nc2cnccn2c1NC1CCCC1`, the CPE inhibition is reported as 16.6% (inactive).
In the case of `O=C(COc1ccc(Cl)cc1)Nc1ncc([N+](=O)[O-])s1`, the CPE inhibition is reported as 25.3% (inactive).
In the case of `CC(C)n1c(NCCc2ccccc2)nc2c1c(=O)n(C)c(=O)n2C`, the CPE inhibition is reported as 7.91% (inactive).
With `N#Cc1c(C(F)(F)F)cc(-c2ccc(Cl)cc2)[nH]c1=O` the CPE inhibition was 25.9% (inactive).
For `OC(c1ccccc1)C1CN(Cc2ccccc2)CCC1(O)c1ccccc1` (configuration not stated), the CPE inhibition was 20.9% (inactive).
For `CC1Cc2ccccc2N1S(=O)(=O)c1cccc(C(=O)N2CCN(c3ncccn3)CC2)c1` (configuration not stated), the CPE inhibition was 19.4% (inactive).
With `O=[N+]([O-])c1ccc(-c2c(O)c3ccccc3c3nc4ccccc4nc23)cc1` the CPE inhibition was 25.8% (inactive).
For `CCc1nnc(NS(=O)(=O)c2ccc(NC(=O)COc3ccc4ccccc4c3)cc2)s1`, the CPE inhibition was 25.7% (inactive).
In the case of `COc1ccc(C)cc1NC(=O)C1COc2ccccc2O1` (configuration not stated), the CPE inhibition is reported as 11.1% (inactive).
For `O=C(Nc1nc(-c2ccccc2)cs1)c1ccc(=O)[nH]c1`, the CPE inhibition was 12% (inactive).
For `COc1ccc2ccc(O)c(CN3CC=C(c4ccccc4)CC3)c2c1`, the CPE inhibition was 14.6% (inactive).
For `Cc1cc(C(=O)CSc2nnc(-c3ccco3)o2)c(C)n1Cc1ccco1`, the CPE inhibition was 2.98% (inactive).
With `Fc1ccc2nc(Nc3nc4c(F)cccc4s3)sc2c1` the CPE inhibition was 20.9% (inactive).
In the case of `CCCC(=O)Nc1cccc(NC(=O)c2ccc([N+](=O)[O-])cc2Cl)c1`, the CPE inhibition is reported as 1.21% (inactive).
In the case of `COC(=O)[C@H](Cc1ccccc1)NC(=O)O[C@@H]1C(=O)c2cc(OC)ccc2O[C@H]1c1ccc(OC)c(Br)c1`, the CPE inhibition is reported as 13.7% (inactive).
In the case of `CN(C)Cc1c(O)c(Cl)cc2c3c(c(=O)oc12)CCCC3`, the CPE inhibition is reported as -0.25% (inactive).
In the case of `CCCCN(CC)C(=O)CSc1nc2c(sc(=S)n2-c2ccc(OCC)cc2)c(=O)[nH]1`, the CPE inhibition is reported as 18.4% (inactive).
With `Cn1c(Oc2ccccc2NCc2cc(Br)ccc2O)cc(=O)n(C)c1=O` the CPE inhibition was 14.3% (inactive).
With `Cc1nc2c(C(=O)NCCC(C)C)c[nH]n2c(=O)c1Cl` the CPE inhibition was 9.83% (inactive).
With `Fc1ccc(Br)cc1C1C=C(c2ccc(Br)cc2)Nc2ncnn21` (configuration not stated) the CPE inhibition was 2.77% (inactive).
In the case of `Cc1cccc(/C(N)=N/OC(=O)COc2ccc(Cl)cc2)c1`, the CPE inhibition is reported as 5.92% (inactive).
In the case of `Cc1ccc(OCCSCc2nnc(NC(=O)Nc3cccc(Cl)c3)s2)cc1`, the CPE inhibition is reported as 19.4% (inactive).
With `CCOC(=O)c1ccc(N2CCN(c3ccccc3F)CC2)c(NC(=O)Nc2ccccc2)c1` the CPE inhibition was 19.7% (inactive).
With `COc1cc(/C=C/C(=O)Nc2nnc(C(C)(C)C)s2)cc(OC)c1OC` the CPE inhibition was 11.5% (inactive).
With `N#CCCN(Cc1cccnc1)C(=S)Nc1ccc(OC(F)F)cc1` the CPE inhibition was 3.08% (inactive).
In the case of `CS(=O)(=O)c1nsc2nc(=O)c(/C=C3\C=Nc4ccccc43)c(N)n12`, the CPE inhibition is reported as 14.8% (inactive).
